{"source": "patent US4786755A", "about": "“Diphenic acid monoamides” (Warner-Lambert Company, priority 1986, dated 1988)"}
{"target": "T1, 5-lipoxygenase (Homo sapiens, UniProt P09917)", "T1 construct": "endogenous in cells; host or cells: leukocytes isolated from fresh human blood", "T1 sequence (P09917 1-674)": "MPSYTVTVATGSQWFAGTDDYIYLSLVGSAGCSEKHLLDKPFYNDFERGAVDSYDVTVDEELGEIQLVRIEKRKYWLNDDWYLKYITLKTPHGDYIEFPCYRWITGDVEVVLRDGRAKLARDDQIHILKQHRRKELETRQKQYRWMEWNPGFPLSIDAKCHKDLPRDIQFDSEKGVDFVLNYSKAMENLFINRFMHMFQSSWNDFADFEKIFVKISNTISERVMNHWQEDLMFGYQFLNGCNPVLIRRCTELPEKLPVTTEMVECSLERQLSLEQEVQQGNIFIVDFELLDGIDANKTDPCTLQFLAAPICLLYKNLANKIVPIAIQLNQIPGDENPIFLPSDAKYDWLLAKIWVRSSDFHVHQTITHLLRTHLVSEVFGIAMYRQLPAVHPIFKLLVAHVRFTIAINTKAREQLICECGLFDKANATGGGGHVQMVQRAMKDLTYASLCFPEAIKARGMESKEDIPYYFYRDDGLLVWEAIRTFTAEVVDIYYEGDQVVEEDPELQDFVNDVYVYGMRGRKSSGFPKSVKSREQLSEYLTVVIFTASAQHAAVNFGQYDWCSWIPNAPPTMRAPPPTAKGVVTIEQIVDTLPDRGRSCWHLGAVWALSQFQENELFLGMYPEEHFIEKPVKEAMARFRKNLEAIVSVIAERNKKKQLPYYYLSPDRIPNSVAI", "assay": "5-Lipoxygenase Assay Using Isolated Human Leukocytes (5LOA2)", "type": "cell-based", "conditions": "20 μM exogenous arachidonic acid; read-out: IC50 5LOA (20)*", "description": "5-Lipoxygenase Assay Using Isolated Human Leukocytes (5LOA2)\nThe formation of 5-HETE in human leukocytes is considered a measure of 5-lipoxygenase activity. The protocol is described in the following.\nFresh heparinized or EDTA treated human blood is mixed with 6% dextran-3% dextrose in isotonic saline in the ratio 0.25 ml dextran solution per 1.0 ml blood. After mixing the blood is allowed to sit at room temperature for about 90 minutes while the RBC's settle. During this period, the plasma is removed with a plastic pipette to nalgens tubes.\nThe plasma is centrifuged at 800 rpm ([…]) on the Beckman Td-b refrigerated centrifuge to remove the platelets (which remain in the supernatant). The pellet, consisting of leukocytes and erythrocytes, is treated with 10 ml 0.87% ammonium chloride at room temperature for four minutes, lysing the red cells. At the end of four minutes the cells are diluted with a 2× volume of phosphate buffered saline, pH 7.4, and centrifuged for ten minutes. The cells are washed three times with the phosphate buffered saline. Any of the pelleted cell matter which is not easily resuspended is discarded during the washings--the material contains platelets (12-lipoxygenase activity).\nAfter washing, the cells are resuspended in phosphate buffered saline containing 1.0 mM calcium and 0.5 mM magnesium. After counting the cells are diluted to 1.5-2.0×10^7 leukocytes per milliliter.\nTo each polypropylene reaction tube is added 0.48 ml leukocytes in Ca-Mg phosphate buffered saline, pH 7.4; 1-5 μl test compound dissolved in DMSO and buffer; or DMSO for control tubes.\nThe tubes preincubate at 37° C. for five minutes.\nThe reaction is started by adding 20 μl of the following, 0.5 μl 20 mM arachidonic acid--final concentration=20 μm; 1 μl 5 mM calcium ionophore A23187--final concentration=10 μm; and 18.5 μl buffer.\nThe reaction proceeds for five minutes, then is stopped by adding 0.5 ml 0.5 mM ice cold Tris buffer, pH 8.0. The tubes are chilled on ice for ten minutes and then extracted three times with a total of 3.5 ml ethyl acetate (3.0 ml removed).\nThe tubes can be stored at this point. For extended storage, the tubes should be filled with nitrogen.\nThe ethyl acetate is evaporated with a Sorvall Speed-Vac. The residue is dissolved in ethanol. The tubes can also be stored at this point at -20° C. under nitrogen.\nA portion of the ethanol solution is injected into the HPLC system for 5-HETE quantitation.\nThe HPLC system consists of Hewlett-Packard 1040A UV spectrophotometry system with an HP85 computer. Injections are made automatically with a Waters WISP 710B. The pump is a Spectra Physics SP8700. Peaks are measured with a Hewlett Packard 3390A integrator. An RP C-18 column is used. The solvent system is isocratic; the solvent is 70% methanol and 30% 0.01M sodium acetate, pH 5.7, pumped at 1.0 ml/min. The flow is monitored at 235 nm for 5-HETE quantitation. Using a 15 cm Alltech Nucleosil C-18 5 μM column provides for a sample turnaround time of about 16 minutes.\nIC50 is calculated as the amount of test agent that causes 50% inhibition of the formation of 5-HETE relative to the control.", "units": {"IC50": "µM"}}
{"smiles": "O=C(O)c1ccccc1-c1ccccc1C(=O)Nc1ccc(CCCc2ccc(Cl)c(Cl)c2)cc1", "note": "[Example 1, [1,1'-Biphenyl]-2-carboxylic acid, 2'-[[[4-[3-(3,4-dichlorophenyl)propyl]phenyl]amino]carbonyl]-]", "IC50": 6.7}
{"smiles": "COc1ccc(CCc2ccc(NC(=O)c3ccccc3-c3ccccc3C(=O)O)cc2)cc1OC", "note": "[Example 7, [1,1'-Biphenyl]-2-carboxylic acid, 2'-[[[4-[2-(3,4-dimethoxyphenyl)ethyl]phenyl]amino]carbonyl]-]", "IC50": "> 20"}
{"smiles": "O=C(O)c1ccccc1-c1ccccc1C(=O)Nc1ccc(Cc2ccc(Cl)c(Cl)c2)cc1", "note": "[Example 9]", "IC50": 19}
{"smiles": "O=C(O)c1ccccc1-c1ccccc1C(=O)Nc1ccc(CCCCc2ccc(Cl)c(Cl)c2)cc1", "note": "[Example 15, [1,1'-Biphenyl]-2-carboxylic acid, 2'-[[[4-[4-(3,4-dichlorophenyl)butyl]phenyl]amino]carbonyl]-]", "IC50": 4.6}
{"smiles": "O=C(O)c1ccccc1-c1ccccc1C(=O)Nc1ccc(CCCc2ccccc2)cc1", "note": "[Example 16, [1,1'-Biphenyl]-2-carboxylic acid, 2'-[[[4-(3-phenylpropyl]phenyl]amino]carbonyl]-]", "IC50": 22}
{"smiles": "O=C(O)c1ccccc1-c1ccccc1C(=O)Nc1ccc(CCCCc2ccccc2)cc1", "note": "[Example 19, [1,1'-Biphenyl]-2-carboxylic acid, 2'-[[[4-(4-phenylbutyl)phenyl]amino]carbonyl]-]", "IC50": 7.2}
